Measurements as given in patent publication US10723741B1, “DNA polymerase IIIC inhibitors and use thereof” (Acurx Pharmaceuticals, LLC, priority 2018, dated 2020).
≈ marks a conversion by molar mass, not a printed value.

Assays:
Type in all cases: cell-based
[1] = test system: Bacillus subtilis ATCC 6633; assay: Broth microdilution MIC, B. subtilis ATCC 6633; settings: ATCC6633, broth microdilution, 37° C., 20 hours, read-out: MIC B. subtilis ATCC 6633
How it was run: (§1)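 Broth microdilution in strain-specific test medium with ~5.0×10^5 cfu/ml inoculum, 1% DMSO and two-fold compound dilutions from 64 to 0.0625 μg/ml. Plates were held 20 hours at 37° C in ambient air. S. pneumoniae colonies were grown beforehand on blood agar in 5% CO2.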

[2] = test system: Enterococcus faecium ATCC 700221 (VRE); assay: Broth microdilution MIC, E. faecium ATCC 700221 (VRE); settings: Enterococcus faecium; broth microdilution, 37° C., 20 hours; read-out: MIC E. faecium ATCC 700221 (VRE)
How it was run: as §1

[3] = test system: Enterococcus faecalis ATCC 29212; assay: Broth microdilution MIC, E. faecalis ATCC 29212; settings: ATCC29212, broth microdilution, 37° C., 20 hours, read-out: MIC E. faecalis ATCC 29212
How it was run: as §1

[4] = test system: Staphylococcus aureus ATCC 29213 (MSSA); assay: Broth microdilution MIC, S. aureus ATCC 29213 (MSSA); settings: broth microdilution, 37° C., 20 hours, read-out: MIC S. aureus ATCC 29213 (MSSA)
How it was run: as §1

[5] = test system: Staphylococcus aureus NRS384 (MRSA); assay: Broth microdilution MIC, S. aureus NRS384 (MRSA); settings: Staphylococcus aureus; broth microdilution, 37° C., 20 hours; read-out: MIC NRS 384 (MRSA)
How it was run: as §1

[6] = test system: Escherichia coli ATCC 25922; assay: Broth microdilution MIC, E. coli ATCC 25922 (MHIIB w & w/o 4 mM EDTA); settings: broth microdilution, 37° C., 20 hours; for MIC: Escherichia coli, ATCC25922, without EDTA, read-out: MIC E. coli ATCC 25922; for MIC E. coli ATCC 25922 + 4 mM EDTA: with 4 mM EDTA
How it was run: as §1

[7] = test system: Streptococcus pneumoniae ATCC 49619; assay: Broth microdilution MIC, S. pneumoniae ATCC 49619; settings: ATCC49619, broth microdilution, 37° C., 20 hours, read-out: MIC S. pneumoniae ATCC 49619
How it was run: as §1

Row | SMILES | MIC [1] [µg/mL] | MIC [2] [µg/mL] | MIC [3] [µg/mL] | MIC [4] [µg/mL] | MIC [5] [µg/mL] | MIC [6] [µg/mL] | MIC E. coli ATCC 25922 + 4 mM EDTA [6] [µg/mL] | MIC [7] [µg/mL]
1 | O=c1[nH]c(NCc2ccc(Cl)c(Cl)c2)nc2cnn(-c3ncccn3)c12 [Compound 139, 5-((3,4-Dichlorobenzyl)amino)-1-(pyrimidin-2-yl)-1H-pyrazolo[4,3-d]pyrimidin-7(6H)-one] | > 64 | > 64 | > 64 | > 64 | > 64 | > 64 | >64 | > 64
2 | O=c1[nH]c(NCc2ccc(Cl)c(Cl)c2)nc2cn(-c3ncccn3)nc12 [Compound 140, 5-((3,4-Dichlorobenzyl)amino)-2-(pyrimidin-2-yl)-2H-pyrazolo[4,3-d]pyrimidin-7(6H)-one] | 4 (≈ 10.3 µM) | 32 (≈ 82.4 µM) | > 64 | > 64 | > 64 | > 64 | >64 | 4 (≈ 10.3 µM)
3 | O=C(O)COCCn1cc2nc(NCc3ccc(Cl)c(Cl)c3)[nH]c(=O)c2n1 [Compound 141, 2-(2-(5-((3,4-Dichlorobenzyl)amino)-7-oxo-6,7-dihydro-2H-pyrazolo[4,3-d]pyrimidin-2-yl)ethoxy)acetic acid] | > 64 | > 64 | > 64 | > 64 | > 64 | > 64 | >64 | > 64
4 | O=c1[nH]c(NCc2ccc(Cl)c(Cl)c2)nc2cn(C3COC3)nc12 [Compound 143, 5-((3,4-Dichlorobenzyl)amino)-2-(oxetan-3-yl)-2H-pyrazolo[4,3-d]pyrimidin-7(6H)-one] | 16 (≈ 43.7 µM) | 32 (≈ 87.4 µM) | 32 (≈ 87.4 µM) | 64 (≈ 175 µM) | 32 (≈ 87.4 µM) | > 64 | >64 | 16 (≈ 43.7 µM)
5 | O=c1[nH]c(NCc2ccc(Cl)c(Cl)c2)nc2cnn(Cc3ncco3)c12 [Compound 144, 5-((3,4-Dichlorobenzyl)amino)-1-(oxazol-2-ylmethyl)-1H-pyrazolo[4,3-d]pyrimidin-7(6H)-one] | 2 (≈ 5.11 µM) | 2 (≈ 5.11 µM) | 16 (≈ 40.9 µM) | 4 (≈ 10.2 µM) | 4 (≈ 10.2 µM) | > 64 | >64 | 8 (≈ 20.4 µM)
6 | O=C(O)CCCn1ncc2nc(NCc3ccc(Cl)c(Cl)c3)[nH]c(=O)c21 [Compound 145, 4-(5-((3,4-Dichlorobenzyl)amino)-7-oxo-6,7-dihydro-1H-pyrazolo[4,3-d]pyrimidin-1-yl)butanoic acid] | 32 (≈ 80.8 µM) | 16 (≈ 40.4 µM) | 64 (≈ 162 µM) | 64 (≈ 162 µM) | 64 (≈ 162 µM) | > 64 | >64 | 16 (≈ 40.4 µM)
7 | CP(C)(=O)CCCCn1ncc2nc(NCc3ccc(Cl)c(Cl)c3)[nH]c(=O)c21 [Compound 146, 5-((3,4-Dichlorobenzyl)amino)-1-(4-(dimethylphosphoryl)butyl)-1H-pyrazolo[4,3-d]pyrimidin-7(6H)-one] | 32 (≈ 72.4 µM) | 32 (≈ 72.4 µM) | 64 (≈ 145 µM) | > 64 | > 64 | > 64 | >64 | 32 (≈ 72.4 µM)
8 | CC(C)(C)OC(=O)N1CCOC(Cn2ncc3nc(NCc4ccc(Cl)c(Cl)c4)[nH]c(=O)c32)C1 (centres unmarked) [Compound 148, tert-butyl 2-((5-((3,4-dichlorobenzyl)amino)-7-oxo-6,7-dihydro-1H-pyrazolo[4,3-d]pyrimidin-1-yl)methyl)morpholine-4-carboxylate] | 2 (≈ 3.93 µM) | 4 (≈ 7.85 µM) | 16 (≈ 31.4 µM) | 8 (≈ 15.7 µM) | 4 (≈ 7.85 µM) | > 64 | >64 | 16 (≈ 31.4 µM)
9 | Cl.O=C(O)C1CC(n2ncc3nc(NCc4ccc(Cl)c(Cl)c4)[nH]c(=O)c32)CN1C(=O)c1ccncc1 (centres unmarked) [Compound 150, 4-(5-((3,4-dichlorobenzyl)amino)-7-oxo-6,7-dihydro-1H-pyrazolo[4,3-d]pyrimidin-1-yl)-1-isonicotinoylpyrrolidine-2-carboxylic acid hydrochloride] | > 64 | > 64 | > 64 | > 64 | > 64 | > 64 | >64 | > 64

The remaining lines, values ahead:

Row | MIC [1] [µg/mL] | MIC [2] [µg/mL] | MIC [3] [µg/mL] | MIC [4] [µg/mL] | MIC [5] [µg/mL] | MIC [6] [µg/mL] | MIC E. coli ATCC 25922 + 4 mM EDTA [6] [µg/mL] | MIC [7] [µg/mL] | SMILES
10 | 1 (≈ 2.73 µM) | 2 (≈ 5.46 µM) | 4 (≈ 10.9 µM) | 4 (≈ 10.9 µM) | 2 (≈ 5.46 µM) | > 64 | >64 | 4 (≈ 10.9 µM) | O=c1[nH]c(NCc2ccc(Cl)c(Cl)c2)nc2cnn(C3COC3)c12 [Compound 142, 5-((3,4-Dichlorobenzyl)amino)-1-(oxetan-3-yl)-1H-pyrazolo[4,3-d]pyrimidin-7(6H)-one]
11 | 2 | 2 | 8 | 8 | 4 | > 64 | 64 | 4 | CN1CCOC(Cn2ncc3nc(NCc4ccc(Cl)c(Cl)c4)[nH]c(=O)c32)C1.Cl (centres unmarked) [Compound 147, 5-((3,4-dichlorobenzyl)amino)-1-((4-methylmorpholin-2-yl)methyl)-1H-pyrazolo[4,3-d]pyrimidin-7(6H)-one hydrochloride]
12 | > 64 | > 64 | > 64 | > 64 | > 64 | > 64 | >64 | 64 | Cl.O=C(O)C1CC(n2ncc3nc(NCc4ccc(Cl)c(Cl)c4)[nH]c(=O)c32)CN1 (centres unmarked) [Compound 151, 4-(5-((3,4-dichlorobenzyl)amino)-7-oxo-6,7-dihydro-1H-pyrazolo[4,3-d]pyrimidin-1-yl)pyrrolidine-2-carboxylic acid hydrochloride]
13 | 4 (≈ 10.2 µM) | 8 (≈ 20.3 µM) | 16 (≈ 40.7 µM) | 16 (≈ 40.7 µM) | 16 (≈ 40.7 µM) | > 64 | 32 | 2 (≈ 5.09 µM) | O=c1[nH]c(NCc2ccc(Cl)c(Cl)c2)nc2cnn(C3CCNCC3)c12 [Compound 152, 5-((3,4-dichlorobenzyl)amino)-1-(piperidin-4-yl)-1H-pyrazolo[4,3-d]pyrimidin-7(6H)-one]
14 | 2 (≈ 4.05 µM) | 2 (≈ 4.05 µM) | 4 (≈ 8.11 µM) | 8 (≈ 16.2 µM) | 4 (≈ 8.11 µM) | > 64 | – | 16 (≈ 32.4 µM) | CC(C)(C)OC(=O)N1CCC(n2ncc3nc(NCc4ccc(Cl)c(Cl)c4)[nH]c(=O)c32)CC1 [Compound 153, Tert-butyl 4-(5-((3,4-dichlorobenzyl)amino)-7-oxo-6,7-dihydro-1H-pyrazolo[4,3-d]pyrimidin-1-yl)piperidine-1-carboxylate]
15 | 8 | 32 | 32 | 32 | 32 | > 64 | 32 | 4 | Cl.O=c1[nH]c(NCc2ccc(Cl)c(Cl)c2)nc2cnn(CC3CCCNC3)c12 (centres unmarked) [Compound 154, 5-((3,4-dichlorobenzyl)amino)-1-(piperidin-3-ylmethyl)-1H-pyrazolo[4,3-d]pyrimidin-7(6H)-one hydrochloride]
16 | 4 | 32 | 64 | 32 | 64 | > 64 | >64 | 8 | Cl.O=c1[nH]c(NCc2ccc(Cl)c(Cl)c2)nc2cnn(CC3CCNC3)c12 (centres unmarked) [Compound 155, 5-((3,4-dichlorobenzyl)amino)-1-(pyrrolidin-3-ylmethyl)-1H-pyrazolo[4,3-d]pyrimidin-7(6H)-one hydrochloride]
17 | 1 | 1 | > 64 | 2 | 2 | > 64 | >64 | 4 | Cl.O=c1[nH]c(NCc2ccc(Cl)c(Cl)c2)nc2cnn(C3CCN(S(=O)(=O)c4cccnc4)CC3)c12 [Compound 156, 5-((3,4-dichlorobenzyl)amino)-1-(1-(pyridin-3-ylsulfonyl)piperidin-4-yl)-1H-pyrazolo[4,3-d]pyrimidin-7(6H)-one hydrochloride]
18 | 2 | 2 | 8 | 8 | 4 | > 64 | 64 | 4 | COCCN1CCC(n2ncc3nc(NCc4ccc(Cl)c(Cl)c4)[nH]c(=O)c32)CC1.Cl [Compound 157, 5-((3,4-dichlorobenzyl)amino)-1-(1-(2-methoxyethyl)piperidin-4-yl)-1H-pyrazolo[4,3-d]pyrimidin-7(6H)-one hydrochloride]
